Assays:
[1] = Test G: Determination of in vitro Stability, rat liver microsomes; format: in vitro ADME, Sprague-Dawley rats; conditions: liver microsomes from rats, 37° C., up to 60 minutes
Method: (§1) Determination of in vitro Stability
(§2) Liver microsomes were prepared from Sprague-Dawley rats and human liver samples according to internal SOPs. The compounds were incubated at 37° C. at a total microsome protein concentration of 3 mg/mL in a 0.05 mol/L TRIS buffer at pH 7.4, in the presence of the cofactors NADH (2.5 mmol/L) and NADPH (0.8 mmol/L). The initial concentration of compound was 5 or 10 μmol/L. Samples were taken for analysis up to 60 minutes after the start of the incubation. The enzymatic activity in the collected sample was immediately stopped by adding 20% […] at a volume corresponding to 3.3% of the total sample volume. The concentration of compound remaining (FINAL CONC) in the 60 min. sample was determined by means of LCMS using a sample collected at zero time as reference (START CONC). The % of degraded thrombin inhibitor was calculated as: [formula]

[2] = Test E: Determination of Thrombin Time ex vivo (plasma concentration of thrombin inhibitor after oral or parenteral administration); format: in vivo, rat; conditions: conscious rats
From the text: Determination of Thrombin Time ex vivo
The inhibition of thrombin after oral or parenteral administration of the compounds of the invention, dissolved in ethanol:Solutol™:water (5:5:90), is examined in conscious rats which, one or two days prior to the experiment, are equipped with a catheter for blood sampling from the carotid artery. On the experimental day blood samples are withdrawn at fixed times after the administration of the compound into plastic tubes containing 1 part sodium citrate solution (0.13 mol per L) and 9 parts of blood. The tubes are centrifuged to obtain platelet poor plasma.
50 μL of plasma samples are precipitated with 100 μL of cold acetonitrile. The samples are centrifuged for 10 minutes at 4000 rpm. 75 μL of the supernatant is diluted with 75 μL of 0.2% formic acid. 10 μL volumes of the resulting solutions are analysed by LC-MS/MS and the concentrations of thrombin inhibitor are determined using standard curves.

[3] = Test G: Determination of in vitro Stability, human liver microsomes; format: in vitro ADME; conditions: liver microsomes from humans, 37° C., up to 60 minutes
Method: as §1, §2

Compound	conversion to the corresponding active inhibitor (free amidine) [1]	oral and/or parenteral bioavailability as the corresponding active inhibitor (free amidine) [2]	conversion to the corresponding active inhibitor (free amidine) [3]
CNc1cc(Cl)cc([C@@H](O)C(=O)N2CC[C@H]2C(=O)NCc2ccc(C(N)=NOC)cc2)c1 [Example 3, Ph(3-Cl)(5-NHMe)-(R)CH(OH)C(O)-(S)Aze-Pab(OMe)]	converted to the corresponding active inhibitor (free amidine)	exhibit oral and/or parenteral bioavailability in the rat as the corresponding active inhibitor (free amidine)	converted to the corresponding active inhibitor (free amidine)
CC(=O)Nc1cc(Cl)cc([C@@H](O)C(=O)N2CC[C@H]2C(=O)NCc2ccc(C(N)=NOC(C)C)cc2)c1 [Example 6, Ph(3-Cl)(5-NHAc)-(R)CH(OH)C(O)-(S)Aze-Pab(OiPr)]		exhibit oral and/or parenteral bioavailability in the rat as the corresponding active inhibitor (free amidine)	

From patent US6433186B1, “Amidino derivatives and their use as thormbin inhibitors” (AstraZeneca AB, priority 2000, dated 2002)
